Reference: patent US11168319B1, “Plant cell culture” (Inari Agriculture Technology, Inc., priority 2017, dated 2021)

How the values were obtained:
maize A188 protoplasts = test: Protoplast viability (Evans blue staining / light microscope / hemocytometer); type: cell-based; conditions: for Viability (%): 100 mM Ca; for viability / appearance: 50 millimolar; for protoplast viability: 288 hours, YPIM B- medium
Method: Separate suspensions of maize B73 and A188 protoplasts (2×10^5 cells per milliliter) were prepared in YPIM B-liquid medium containing various combinations of the added salts calcium chloride, potassium ascorbate, and magnesium chloride or magnesium sulfate. One-half milliliter aliquots of the suspensions were dispensed into a 24-well microtiter plate in the arrangement shown in Table 2, which lists the concentrations of calcium chloride (“Ca”), potassium ascorbate (“A”), and magnesium chloride (“MgCl2”) or magnesium sulfate (“MgSO4”) in millimolar values.
Viability was judged by Evans blue staining and visualization under a light microscope.
Separate suspensions of maize A188 protoplasts (2×10^5 cells per milliliter) were prepared in YPIM B-liquid medium containing calcium chloride at 0 or 50 millimolar. One-half milliliter aliquots of the suspensions were dispensed into a 24-well microtiter plate.
(§1) Viability was judged by visualization under a light microscope.
Separate suspensions of maize B73 and A188 protoplasts (2×10^5 cells per milliliter) were prepared in PIM B-liquid medium (identical to YPIM B-medium except with the 6-benzylaminopurine substituted with 0.022 milligrams/L thidiazuron) containing calcium chloride added at 0 or 50 millimolar. One-half milliliter aliquots of the suspensions were dispensed into a 24-well microtiter plate.
Separate suspensions of maize B73 and A188 protoplasts (2×10^5 cells per milliliter) were prepared in YPIM B-liquid medium containing (a) calcium chloride added at 100 millimolar, or (b) 1 millimolar glutathione, or (c) no added calcium or glutathione. One-milliliter aliquots of the suspensions were dispensed into a 24-well microtiter plate. At 16, 40, 64, and 136 hours of culture, 50-microliter samples were taken for hemocytometer analysis from each well; for the plates containing maize A188 protoplasts, parallel 50-microliter samples were taken from a replicate well at 16, 40, and 64 hours of culture for quantification using a Cellometer cell counter (Nexcelom Bioscience LLC, Lawrence, Mass.).
Viability was determined by Evans blue staining and quantification using a hemocytometer. Under conditions with high concentrations of calcium, Evans blue can create precipitates that interfere with cell counting; to prevent this, 5 microliters of an EDTA solution was added to the samples from the wells containing 100 millimolar calcium chloride immediately prior to staining.

[1] = system: maize protoplasts (A188, B73, B104, HiIIA, HiIIB); test: Protoplast viability by light microscope, five maize germplasm lines; type: cell-based; conditions: 34 hours, across the five maize lines
Text: as §1

SMILES: [Ca+2].[Cl-].[Cl-] [calcium chloride]
- Viability (%) (maize A188 protoplasts; 0 hours, hemocytometer): 90%
- Viability (%) (maize A188 protoplasts; 16 hours): 67%
- Viability (%) (maize A188 protoplasts; 40 hours): 57%
- Viability (%) (maize A188 protoplasts; 64 hours): 59%
- Viability (%) (maize A188 protoplasts; 136 hours): 46%
- viability / appearance (maize A188 protoplasts; 96 hours, vs no added calcium): appeared healthier
- viability / appearance (maize A188 protoplasts; 168 hours (7 days)): very many large, healthy-looking protoplasts
- protoplast viability (maize A188 protoplasts; 50 mM added salt): about 20%
- protoplast viability (maize A188 protoplasts; 100 mM added salt): about 70%
- viability (maize A188 protoplasts; day 6, PIM B- medium, 50 millimolar calcium, several wells): 100%
- cell wall regeneration and cell division (maize A188 protoplasts; day 20, 50 millimolar): had generated cell walls and undergone at least some cell division
- viability ([1]; 50 millimolar calcium): about 55%
- viability ([1]; 100 millimolar calcium): about 70%
